Consider one substance from patent US20130316958A1 (University of Southern California, priority 2010, published 2013).

One assay deals with NIH3T3 cells. The assay can be described thus: GFP-LC3 autophagy with ectopic FLIP expression. The assay is classed as cell-based. Conditions: Hank's solution 4 hr or 2 μM rapamycin 3 hr. How it is done: At 12-16 hours post-transfection with GFP-LC3, NIH3T3 cells containing vector or the FLIP gene were treated with Hank's solution for 4 hr or with 2 μM rapamycin for 3 hr. Subsequently, GFP-LC3 was detected using an inverted fluorescence microscope, autophagy was quantified as means (±SD) of the combined results from three independent experiments, and autophagosomes were visualized through scanning electron microscopy. NIH3T3-Vector, NIH3T3-KSHV-vFLIP, and NIH3T3-MCV-159L cells were treated with Hank's solution for 4 hr, followed by immunoblotting with anti-LC3 and anti-βTubulin. At 12-16 hr post-transfection with GFP-LC3, TREX-BCBL-Vector and TREX-BCBL-vFLIP cells were treated with doxycycline for 24 hr, followed by incubation with 2 μM rapamycin for an additional 12 hr. The detection of GFP-LC3 and autophagy levels was performed as described above, vFLIP expression was detected by IB with anti-Flag, and autophagosomes were visualized by scanning EM. TNF-induced apoptosis and NF-κB luciferase assay were performed as previously described (Matta and Chaudhary (2004) Proc. Natl. Acad. Sci. USA 101:9399-9404).
The anti-autophagic properties of vFLIP, as well as the related cFLIP, HSV, and MCV, were evaluated by ectopic expression of HVS, vFLIP, MCV 159L, and the short form of cFLIP (cFLIPs) in NIHI3T3 cells. DNA fragments corresponding to the coding sequences of the KSHV-vFLIP, human cFLIPs, MCV-MC159, and HVS-vFLIP genes were amplified via polymerase chain reaction and subcloned into pcDNA5/FRT/TO between the AflII and BamHI restriction sites or pEF-IRES-puro between the AflII and XbaI sites. Starvation studies were carried out by transfecting cells containing vector or the FLIP gene with GFP-LC3, then 12-16 h post-transfection, treating the cells with Hank's solution for 4 hr or with 2 μM rapamycin for 3 hr. Autophagy was assessed by GFP-LC3 redistribution using an inverted fluorescence microscope, quantifying autophagy as means (±SD) of the combined results from three independent experiments. Autophagosomes were visualized through scanning electron microscopy. […]

Another assay has as its system TREX-BCBL cells. Kind of assay: vFLIP expression in KSHV-infected BCBL1 cells: autophagy, growth suppression and death. The assay is classed as cell-based. On the procedure: To investigate whether vFLIP expression suppresses autophagy in virus-infected cells, a KSHV-infected BCBL1 cell line was constructed (TREX-BCBL) in which a Flag-tagged KSHV-vFLIP gene was integrated into the chromosomal DNA under the control of a tetracycline-inducible promoter. (Nakamura et al. (2003) J. Virol. 77:4205-4220). At 12-16 hr post-transfection with GFP-LC3, TREX-BCBL-Vector and TREX-BCBL-vFLIP cells were treated with Doxycycline for 24 hr, followed by incubation with 2 μM rapamycin for an additional 12 hr. The detection of GFP-LC3 and autophagy levels was performed as described above, vFLIP expression was detected by IB with anti-Flag, and autophagosomes were visualized by scanning EM (scale bar=50 nm). Treatment of these cells with doxycycline strongly activated Flag-vFLIP expression.
The effect of vFLIP on autophagy was tested in a KSHV-infected BCBL1 cell line. TREX-BCBL-Vector and TREX-BCBL-vFLIP cells were treated with rapamycin or left untreated for 6 days in the presence of doxycycline and subjected to scanning EM, to examine the morphologies of over 100 dead cells and quantify cell death for apoptosis and autophagic death, or subjected to PI staining and cell cycle analysis.
All siRNAs were produced by Dharmacon Research. siRNAs specific for human Beclin1 (5′[…]3′) and a nonspecific scrambled control siRNA were transfected using DharmaFect reagent (Dharmacon) according to the manufacturer's instructions. At 48-72 hr post-transfection, cells were analyzed for autophagy. Trypan blue staining and a Beckman Coulter Z2 Particle Count and Size analyzer were used to determine cell death (as a percentage) at day 5.

The next assay deals with T1, Atg3-LC3 interaction (Homo sapiens, UniProt Q9NT62).
T1 construct: expressed in transfected cells; host or cells: HEK293T
T1 sequence (Q9NT62 whole entry): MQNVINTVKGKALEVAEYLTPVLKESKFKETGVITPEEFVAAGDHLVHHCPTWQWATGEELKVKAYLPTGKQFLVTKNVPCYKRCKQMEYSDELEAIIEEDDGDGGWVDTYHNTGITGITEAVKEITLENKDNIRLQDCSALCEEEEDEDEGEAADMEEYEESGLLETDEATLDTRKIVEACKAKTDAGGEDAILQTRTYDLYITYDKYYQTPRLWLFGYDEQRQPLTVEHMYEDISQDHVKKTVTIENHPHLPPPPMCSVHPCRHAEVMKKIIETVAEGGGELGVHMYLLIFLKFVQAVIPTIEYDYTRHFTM
The assay can be described thus: Competition of vFLIP with LC3 for Atg3 binding (GST pulldown). Conditions: increasing amount of Flag-vFLIP, HEK293T. How it is done:
Due to identical Atg3 binding patterns seen in vFLIP and LC3, the ability of vFLIP to directly compete with LC3 for Atg3 binding was tested. HEK293T cells were transfected with GST-Atg3 and GFP-LC3 along with increasing amount of Flag-vFLIP. At 48 hr post-transfection, GST pulldown was performed as described above, followed by immunoblotting with αGFP or αFlag.

A further assay relates to NF-κB. Kind of assay: NF-κB luciferase reporter assay. The assay is classed as cell-based. To be noted: NIH3T3 cells, 48 hr post-transfection. The text has this:
To determine the effects of the interactions of vFLIP with FADD, IKKαβγ, and 14-3-3σ on anti-autophagy activity, NIH3T3 cells stably expressing various vFLIP mutants were constructed: m14-3-3σ, which lacks 14-3-3σ-binding; mTRAF2, which lacks TRAF2-binding (Guasparri et al. (2006) EMBO Rep. 7:114-119); 67AAA and 58AAA, which have reduced NF-κB activation (Matta and Chaudhary (2004) Proc. Natl. Acad. Sci. USA 101:9399-9404); and mFADD, which lacks FADD-binding (Yang et al. (2005) Mol. Cell. 20:939-949). These cells were treated with either cyclohexamide (CHX) alone or CHX and TNF-α for 12 hr or with 2 μM rapamycin for 3 hr. Propidium iodide (PI) staining and flow cytometry analysis were performed to determine apoptosis levels. Alternatively, NIH3T3 cells containing vector, KSHV vFLIP, or its mutants were transfected with an NF-κB-luciferase reporter construct and a control renilla luciferase plasmid, pRL-SV40 (Promega). At 48 hr post-transfection, luciferase activity was measured with a luminometer using a dual luciferase assay kit (Promega) and normalized with renilla luciferase activity to determine transfection efficiency. GFP-LC3 puncta were detected using an inverted fluorescence microscope and the autophagy levels quantified as means (±SD) of the results from three independent experiments.
On the technique in general: In a reporter assay the amount or activity of a reporter protein is the signal.

With “KSHV vFLIP: viral FLICE-like inhibitor protein of Kaposi's sarcoma-associated herpesvirus, expressed in cells”, the “suppression of starvation- and rapamycin-induced autophagy” value in the assay on NIH3T3 cells is “strongly suppressed starvation- and rapamycin-induced autophagy”. Moreover, in the assay with TREX-BCBL cells (TREX-BCBL-vFLIP cells), the “block of rapamycin-induced autophagy and cell death” value is “readily blocked rapamycin-induced autophagy and cell death”; the “inhibition of peptide-induced autophagy and cell death” value is recorded as “minimal”. Also, in the assay with TREX-BCBL cells (doxycycline 24 hr, 2 μM rapamycin 12 hr), the “suppression of rapamycin-induced autophagy in TREX-BCBL cells” value was “extensively suppressed rapamycin-induced autophagy”. Further, the “block of rapamycin- or zVAD-induced growth suppression and autophagic death” value in the assay on TREX-BCBL cells (ectopic expression in BCBL1 cells) is reported as “almost completely blocked”. The “effect on Atg3-LC3 interaction” value with Atg3-LC3 interaction is listed as “marked decrease of Atg3-LC3 interaction”. Moreover, the NF-κB activation result with NF-κB is “carried out NF-κB activation”.
